# Data taken from patent US7879844B2, “Heterocyclic janus kinase 3 inhibitors” (Astellas Pharma Inc., priority 2005, dated 2011).
# pIC50: −log10 of the molar value.
# Molecular target: T1, human JAK3 kinase domain (Homo sapiens, UniProt P52333)
# T1 construct: attached to the N-terminal of the 796-1124 (C-terminal) fragment of the human JAK3 protein; His-tag (N); purchased Carna Biosciences, Inc. (Kobe, Japan); host or cells: baculovirus expression system
# Test: JAK3 inhibition test
# Assay type: biochemical
# Conditions: purified human JAK3 kinase domain; Biotin-Lyn-Substrate-2, 20 μM ATP in substrate solution; absorbance at 450 nm; read-out: IC50 (JAK3 inhibitory activity)
# Protocol: The JAK3 inhibition test was performed as described below according to the method of Okimoto et al.
# Purified human JAK3 kinase domain was purchased from Carna Biosciences, Inc. (Kobe, Japan). This is obtained as described below. His-tag (41 kDa) was attached to the N-terminal of the 796-1124 (C-terminal) fragment of the human JAK3 protein (accession number #NM_000215), expressed using baculovirus expression system, and then purified using Ni-NTA affinity column chromatography.
# After incubation at ambient temperature for one hour, the plate was washed with a cleaning buffer (50 mM Tris-HCl pH 7.5, 150 mM NaCl, 0.02% Tween 20), and a blocking buffer (a cleaning buffer containing 0.1% bovine serum albumin) was added to the plate. After incubation at ambient temperature for 30 minutes, the blocking buffer was removed, and an HRP-PY-20 solution (obtained by diluting HRP-PY-20 solution with the blocking buffer 500 times) was added. After incubation at ambient temperature for 30 minutes, the plate was washed four times, and a TMB substrate solution (Sigma) was added to the plate. After incubation at ambient temperature for four minutes, 1M sulfuric acid was added to stop the reaction. Enzyme activity was measured as absorbance at 450 nm. The efficacy of the test compound as a JAK3 inhibitor was expressed as an IC50 value.
# T1 sequence (P52333 796-1124): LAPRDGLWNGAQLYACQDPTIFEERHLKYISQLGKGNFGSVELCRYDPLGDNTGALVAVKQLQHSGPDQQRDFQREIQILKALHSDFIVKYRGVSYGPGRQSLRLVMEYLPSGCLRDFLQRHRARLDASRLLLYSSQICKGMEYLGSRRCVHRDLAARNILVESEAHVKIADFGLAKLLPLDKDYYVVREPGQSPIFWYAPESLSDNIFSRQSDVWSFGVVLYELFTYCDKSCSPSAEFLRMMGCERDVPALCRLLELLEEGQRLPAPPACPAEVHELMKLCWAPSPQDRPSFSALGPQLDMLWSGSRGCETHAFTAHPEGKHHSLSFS
row,SMILES,pIC50
1,N#Cc1ccc(N2[C@@H]3CC[C@H]2C[C@H](Nc2c(C(N)=O)cnc4[nH]ccc24)C3)nc1 [Example 143],9.16
2,"CNC(=O)C(=O)Nc1nn([C@H]2[C@@H]3CC4C[C@H]2C[C@@](O)(C4)C3)c2c1cnc1[nH]ccc12 [Example 33, cis-N-{1-[(1R,2R,3S,5s)-5-hydroxyadamantan-2-yl]-1,6-dihydropyrazolo[3,4-d]pyrrolo[2,3-b]pyridine-3-yl}-N′-methylethanediamide]",8.68
3,OCc1noc(-c2cnc3[nH]ccc3c2N[C@H]2C3CC4CC2C[C@@](O)(C4)C3)n1 [Example 484],9.51
4,N#Cc1ccc(N2[C@@H]3CC[C@H]2C[C@H](Nc2c(C(N)=O)cnc4[nH]ccc24)C3)nn1 [Example 543],9.48
5,NC(=O)c1cnc2[nH]ccc2c1N[C@@H]1C[C@H]2CC[C@@H]1C2 [Example 133],8.36
6,"COCCNC(=O)C(=O)Nc1nn([C@H]2C3CC4CC2C[C@@](O)(C4)C3)c2c1cnc1[nH]ccc12 [Example 32, cis-N-{1-[(1R,2R,3S,5s)-5-hydroxyadamantan-2-yl]-1,6-dihydropyrazolo[3,4-d]pyrrolo[2,3-b]pyridine-3-yl}-N′-(2-methoxyethyl)ethanediamide]",8.72
7,O=C(CO)c1cnc2[nH]ccc2c1N[C@H]1C2CC3CC1C[C@@](O)(C3)C2 [Example 379],8.92
8,N#CC12CC3CC(C1)C(Nc1c(C(N)=O)cnc4[nH]cnc14)C(C3)C2 (centres unmarked) [Example 426],8.64
9,CN(CC#N)C(=O)C12CC3CC(C1)C(n1c(=O)[nH]c4cnc5[nH]ccc5c41)C(C3)C2 (centres unmarked) [Example 384],9.55
10,"Nc1nnc(-c2cnc3[nH]ccc3c2N[C@H]2C3CC4CC2C[C@@](O)(C4)C3)s1 [Example 34, (1s,4r)-4-{[5-(5-amino-1,3,4-thiadiazole-2-yl)-1H-pyrrolo[2,3-b]pyridine-4-yl]amino}adamantan-1-ol]",9.77
11,N#CCCOC12CC3CC(C1)C(n1c(=O)[nH]c4cnc5[nH]ccc5c41)C(C3)C2 (centres unmarked) [Example 405],9.19
12,CO[C@H]1CC[C@H](NC(=O)C(=O)Nc2nn([C@H]3[C@@H]4CC5C[C@H]3C[C@@](O)(C5)C4)c3c2cnc2[nH]ccc23)CC1 [Example 434],9.07
13,"O[C@]12CC3C[C@H](C1)[C@H](Nc1c(-c4nnco4)cnc4[nH]ccc14)[C@@H](C3)C2 (relative stereo) [Example 29, rel-(1s,3R,4R,5S)-4-{[5-(1,3,4-oxazole-2-yl)-1H-pyrrolo[2,3-b]pyridine-4-yl]amino}adamantan-1-ol]",8.64
14,N#CCCOC12CC3CC(C1)C(n1[nH]c(=O)c4cnc5[nH]ccc5c41)C(C3)C2 (centres unmarked) [Example 498],8.89
